{"source": "paper PMC5438973", "about": "(Frontiers in Psychiatry, 2017)", "key": {"[1]": {"molecular_target": "T1, h5-HT1A (Homo sapiens, UniProt P08908)", "T1 construct": "expressed in transfected cells", "T1 sequence (P08908 whole entry)": "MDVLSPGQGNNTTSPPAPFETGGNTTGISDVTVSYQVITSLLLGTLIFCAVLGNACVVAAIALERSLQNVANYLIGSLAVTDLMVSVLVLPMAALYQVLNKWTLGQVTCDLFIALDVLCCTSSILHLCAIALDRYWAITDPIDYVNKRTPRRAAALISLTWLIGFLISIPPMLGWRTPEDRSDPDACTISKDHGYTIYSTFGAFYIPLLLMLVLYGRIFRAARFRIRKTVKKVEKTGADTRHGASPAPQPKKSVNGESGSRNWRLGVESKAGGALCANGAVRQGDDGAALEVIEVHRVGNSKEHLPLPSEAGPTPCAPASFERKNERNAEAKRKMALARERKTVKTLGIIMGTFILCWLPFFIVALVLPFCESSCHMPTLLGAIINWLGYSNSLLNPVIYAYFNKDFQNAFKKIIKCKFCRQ", "test": "Radioligand binding, human cloned h5-HT1A", "settings": "agonist radioligand, read-out: Affinity, Mean", "procedure": "(§1) Binding affinities at the serotonin receptors were determined by standard radioligand-binding methods using human cloned receptors as reported in the literature ([14], [15])."}, "[2]": {"molecular_target": "T2, h5-HT1B (Homo sapiens, UniProt P28222)", "T2 construct": "expressed in transfected cells", "T2 sequence (P28222 whole entry)": "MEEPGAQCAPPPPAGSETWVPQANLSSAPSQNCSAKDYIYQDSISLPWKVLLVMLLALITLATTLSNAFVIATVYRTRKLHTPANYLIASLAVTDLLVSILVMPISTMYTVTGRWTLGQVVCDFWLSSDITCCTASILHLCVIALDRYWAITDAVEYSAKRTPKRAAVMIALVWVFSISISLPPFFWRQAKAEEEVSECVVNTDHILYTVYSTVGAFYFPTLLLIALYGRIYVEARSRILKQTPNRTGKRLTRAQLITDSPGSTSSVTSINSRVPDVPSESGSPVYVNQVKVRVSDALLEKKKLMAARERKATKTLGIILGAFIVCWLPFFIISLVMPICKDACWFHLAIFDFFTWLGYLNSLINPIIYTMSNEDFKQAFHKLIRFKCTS", "test": "Radioligand binding, human cloned h5-HT1B", "settings": "agonist radioligand, read-out: Affinity, Mean", "procedure": "as §1"}, "[3]": {"molecular_target": "T3, h5-HT1F (Homo sapiens, UniProt P30939)", "T3 construct": "expressed in transfected cells", "T3 sequence (P30939 whole entry)": "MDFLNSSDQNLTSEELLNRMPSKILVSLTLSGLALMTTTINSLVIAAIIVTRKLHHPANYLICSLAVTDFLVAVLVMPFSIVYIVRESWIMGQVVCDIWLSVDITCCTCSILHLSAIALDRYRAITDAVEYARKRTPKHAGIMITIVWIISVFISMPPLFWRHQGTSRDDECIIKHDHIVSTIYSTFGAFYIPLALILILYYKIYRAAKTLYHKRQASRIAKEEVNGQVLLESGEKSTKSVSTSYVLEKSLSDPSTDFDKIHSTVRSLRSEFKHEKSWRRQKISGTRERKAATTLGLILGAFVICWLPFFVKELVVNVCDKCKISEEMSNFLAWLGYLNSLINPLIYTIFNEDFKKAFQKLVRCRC", "test": "Radioligand binding, human cloned h5-HT1F", "settings": "agonist radioligand, read-out: Affinity, Mean", "procedure": "as §1"}, "[4]": {"molecular_target": "T4, h5-HT6 (Homo sapiens, UniProt P50406)", "T4 construct": "expressed in transfected cells", "test": "Radioligand binding, human cloned h5-HT6", "settings": "agonist radioligand, read-out: Affinity, Mean", "procedure": "as §1"}, "[5]": {"molecular_target": "T5, h5-HT7 (Homo sapiens, UniProt P34969)", "T5 construct": "expressed in transfected cells", "T5 sequence (P34969 whole entry)": "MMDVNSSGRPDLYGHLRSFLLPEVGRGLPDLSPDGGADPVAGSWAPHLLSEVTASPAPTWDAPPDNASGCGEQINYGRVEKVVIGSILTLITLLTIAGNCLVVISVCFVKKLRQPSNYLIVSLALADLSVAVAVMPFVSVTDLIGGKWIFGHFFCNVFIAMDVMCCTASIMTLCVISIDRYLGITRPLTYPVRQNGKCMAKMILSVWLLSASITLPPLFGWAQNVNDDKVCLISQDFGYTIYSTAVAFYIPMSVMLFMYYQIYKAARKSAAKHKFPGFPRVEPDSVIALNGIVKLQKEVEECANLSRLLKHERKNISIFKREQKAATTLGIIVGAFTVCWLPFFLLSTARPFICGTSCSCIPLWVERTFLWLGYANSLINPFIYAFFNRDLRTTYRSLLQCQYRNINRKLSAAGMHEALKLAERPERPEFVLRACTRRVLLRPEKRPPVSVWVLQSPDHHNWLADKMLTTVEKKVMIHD", "test": "Radioligand binding, human cloned h5-HT7", "procedure": "as §1"}, "[6]": {"tested_on": "L-Verapamil site", "test": "CEREP broad receptor screening panel", "format": "binding", "parameters": "dose or concentration left out as unconfirmed", "settings": "CPD 1 (table title), duplicate", "procedure": "(§2) Additional selectivity assessment of CPD 1 was performed at CEREP. Methods are available for the multiple assays utilized at http://www.cerep.fr/cerep/users/pages/catalog/assay/catalog.asp. The specific ligand binding to the receptors is defined as the difference between the total binding and the non-specific binding determined in the presence of an excess of unlabeled ligand."}, "[7]": {"tested_on": "α1", "test": "CEREP broad receptor screening panel", "format": "binding", "parameters": "dose or concentration left out as unconfirmed", "settings": "CPD 1 (table title), duplicate", "procedure": "as §2"}, "[8]": {"molecular_target": "T6, D1 (Homo sapiens, UniProt P21728)", "T6 construct": "CEREP", "T6 sequence (P21728 whole entry)": "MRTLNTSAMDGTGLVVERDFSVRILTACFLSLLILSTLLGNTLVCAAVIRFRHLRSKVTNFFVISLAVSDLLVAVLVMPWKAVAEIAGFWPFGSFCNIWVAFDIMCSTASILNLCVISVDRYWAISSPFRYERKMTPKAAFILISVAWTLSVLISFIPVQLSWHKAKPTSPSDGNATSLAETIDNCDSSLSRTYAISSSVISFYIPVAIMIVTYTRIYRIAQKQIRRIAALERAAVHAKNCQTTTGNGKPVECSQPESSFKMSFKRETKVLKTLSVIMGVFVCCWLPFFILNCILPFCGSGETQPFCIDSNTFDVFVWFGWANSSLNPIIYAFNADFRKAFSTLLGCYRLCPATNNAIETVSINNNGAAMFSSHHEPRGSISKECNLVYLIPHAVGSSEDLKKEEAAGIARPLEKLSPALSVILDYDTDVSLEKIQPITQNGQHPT", "test": "CEREP broad receptor screening panel", "format": "binding", "settings": "CPD 1 10 µM (table title), duplicate", "procedure": "as §2"}, "[9]": {"molecular_target": "T7, D2s (Homo sapiens, UniProt P14416)", "T7 construct": "CEREP", "test": "CEREP broad receptor screening panel", "format": "binding", "settings": "CPD 1 10 µM (table title), duplicate", "procedure": "as §2"}, "[10]": {"molecular_target": "T8, D3 (Homo sapiens, UniProt P35462)", "T8 construct": "CEREP", "T8 sequence (P35462 whole entry)": "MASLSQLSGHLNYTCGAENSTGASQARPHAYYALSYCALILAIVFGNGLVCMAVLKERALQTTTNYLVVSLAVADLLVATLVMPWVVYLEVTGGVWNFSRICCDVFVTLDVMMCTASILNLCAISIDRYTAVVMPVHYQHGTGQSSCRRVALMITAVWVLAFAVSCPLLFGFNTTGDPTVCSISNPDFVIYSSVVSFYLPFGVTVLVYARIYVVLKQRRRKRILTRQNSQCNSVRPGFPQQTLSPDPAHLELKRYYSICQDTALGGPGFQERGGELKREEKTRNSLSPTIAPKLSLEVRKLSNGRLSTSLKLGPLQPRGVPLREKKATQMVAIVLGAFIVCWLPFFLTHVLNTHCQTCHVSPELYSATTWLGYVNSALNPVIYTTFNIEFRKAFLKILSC", "test": "CEREP broad receptor screening panel", "format": "binding", "settings": "CPD 1 10 µM (table title), duplicate", "procedure": "as §2"}, "[11]": {"molecular_target": "T9, D4.4 (Homo sapiens, UniProt P21917)", "T9 construct": "CEREP", "T9 sequence (P21917 whole entry)": "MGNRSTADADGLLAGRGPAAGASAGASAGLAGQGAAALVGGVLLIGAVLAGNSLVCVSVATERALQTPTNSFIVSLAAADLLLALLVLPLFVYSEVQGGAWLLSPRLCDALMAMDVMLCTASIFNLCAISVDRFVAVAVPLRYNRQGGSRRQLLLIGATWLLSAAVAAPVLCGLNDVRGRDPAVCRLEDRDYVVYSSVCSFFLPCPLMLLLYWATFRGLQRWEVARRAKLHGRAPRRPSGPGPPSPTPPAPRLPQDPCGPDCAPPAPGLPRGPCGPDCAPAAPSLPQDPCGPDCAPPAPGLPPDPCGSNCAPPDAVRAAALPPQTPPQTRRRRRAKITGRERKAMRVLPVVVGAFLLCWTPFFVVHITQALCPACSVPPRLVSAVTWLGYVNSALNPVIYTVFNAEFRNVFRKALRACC", "test": "CEREP broad receptor screening panel", "format": "binding", "settings": "CPD 1 10 µM (table title), duplicate", "procedure": "as §2"}, "[12]": {"molecular_target": "T10, D5 (Homo sapiens, UniProt P21918)", "T10 construct": "CEREP", "test": "CEREP broad receptor screening panel", "format": "binding", "settings": "CPD 1 10 µM (table title), duplicate", "procedure": "as §2"}, "[13]": {"molecular_target": "T11, H1 (Homo sapiens, UniProt P35367)", "T11 construct": "CEREP", "test": "CEREP broad receptor screening panel", "format": "binding", "settings": "CPD 1 10 µM (table title), duplicate", "procedure": "as §2"}, "[14]": {"molecular_target": "T12, H2 (Homo sapiens, UniProt P25021)", "T12 construct": "CEREP", "T12 sequence (P25021 whole entry)": "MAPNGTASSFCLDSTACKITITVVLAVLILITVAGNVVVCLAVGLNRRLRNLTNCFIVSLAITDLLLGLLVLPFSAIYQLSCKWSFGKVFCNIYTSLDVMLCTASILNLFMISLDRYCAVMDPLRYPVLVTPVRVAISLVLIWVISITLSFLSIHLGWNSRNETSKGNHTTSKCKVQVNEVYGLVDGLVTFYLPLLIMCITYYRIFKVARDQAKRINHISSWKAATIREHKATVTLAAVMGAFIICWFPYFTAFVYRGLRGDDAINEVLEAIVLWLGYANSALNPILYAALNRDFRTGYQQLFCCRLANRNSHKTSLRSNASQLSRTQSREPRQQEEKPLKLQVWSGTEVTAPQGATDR", "test": "CEREP broad receptor screening panel", "format": "binding", "settings": "CPD 1 10 µM (table title), duplicate", "procedure": "as §2"}, "[15]": {"molecular_target": "T13, M1 (Homo sapiens, UniProt P11229)", "T13 construct": "CEREP", "T13 sequence (P11229 whole entry)": "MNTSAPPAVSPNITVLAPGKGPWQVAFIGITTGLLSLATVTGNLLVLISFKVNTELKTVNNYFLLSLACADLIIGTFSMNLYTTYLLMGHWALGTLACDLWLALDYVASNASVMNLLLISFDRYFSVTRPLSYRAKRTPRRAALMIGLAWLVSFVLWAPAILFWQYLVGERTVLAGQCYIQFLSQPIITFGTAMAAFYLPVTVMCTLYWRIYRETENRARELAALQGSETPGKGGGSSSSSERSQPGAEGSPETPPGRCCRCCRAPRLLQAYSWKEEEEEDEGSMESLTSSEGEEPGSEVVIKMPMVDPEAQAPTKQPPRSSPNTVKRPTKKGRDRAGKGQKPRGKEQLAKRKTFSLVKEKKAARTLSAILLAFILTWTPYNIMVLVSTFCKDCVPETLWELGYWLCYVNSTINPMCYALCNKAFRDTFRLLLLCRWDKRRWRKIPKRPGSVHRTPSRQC", "test": "CEREP broad receptor screening panel", "format": "binding", "settings": "CPD 1 10 µM (table title), duplicate", "procedure": "as §2"}, "[16]": {"molecular_target": "T14, M3 (Homo sapiens, UniProt P20309)", "T14 construct": "CEREP (contract screening)", "T14 sequence (P20309 whole entry)": "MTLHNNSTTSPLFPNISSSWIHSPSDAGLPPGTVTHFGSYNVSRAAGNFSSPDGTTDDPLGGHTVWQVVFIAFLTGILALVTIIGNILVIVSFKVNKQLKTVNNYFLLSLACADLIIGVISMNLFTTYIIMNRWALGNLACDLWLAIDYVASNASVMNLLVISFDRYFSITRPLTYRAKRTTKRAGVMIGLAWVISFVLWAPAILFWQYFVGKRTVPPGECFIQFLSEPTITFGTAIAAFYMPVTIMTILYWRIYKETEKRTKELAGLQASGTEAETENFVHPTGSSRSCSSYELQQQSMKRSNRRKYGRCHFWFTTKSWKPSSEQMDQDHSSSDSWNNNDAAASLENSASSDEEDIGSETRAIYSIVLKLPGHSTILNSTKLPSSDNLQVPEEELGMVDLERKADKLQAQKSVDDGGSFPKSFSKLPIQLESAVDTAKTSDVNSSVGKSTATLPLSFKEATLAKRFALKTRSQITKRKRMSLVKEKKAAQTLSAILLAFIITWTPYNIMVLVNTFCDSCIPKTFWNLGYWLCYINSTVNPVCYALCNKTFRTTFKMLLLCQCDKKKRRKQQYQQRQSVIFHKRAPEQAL", "test": "CEREP broad receptor screening panel", "format": "binding", "settings": "CPD 1 10 µM (table title), duplicate", "procedure": "as §2"}, "[17]": {"molecular_target": "T15, NE transporter (Homo sapiens, UniProt P23975)", "T15 construct": "CEREP (contract screening)", "T15 sequence (P23975 whole entry)": "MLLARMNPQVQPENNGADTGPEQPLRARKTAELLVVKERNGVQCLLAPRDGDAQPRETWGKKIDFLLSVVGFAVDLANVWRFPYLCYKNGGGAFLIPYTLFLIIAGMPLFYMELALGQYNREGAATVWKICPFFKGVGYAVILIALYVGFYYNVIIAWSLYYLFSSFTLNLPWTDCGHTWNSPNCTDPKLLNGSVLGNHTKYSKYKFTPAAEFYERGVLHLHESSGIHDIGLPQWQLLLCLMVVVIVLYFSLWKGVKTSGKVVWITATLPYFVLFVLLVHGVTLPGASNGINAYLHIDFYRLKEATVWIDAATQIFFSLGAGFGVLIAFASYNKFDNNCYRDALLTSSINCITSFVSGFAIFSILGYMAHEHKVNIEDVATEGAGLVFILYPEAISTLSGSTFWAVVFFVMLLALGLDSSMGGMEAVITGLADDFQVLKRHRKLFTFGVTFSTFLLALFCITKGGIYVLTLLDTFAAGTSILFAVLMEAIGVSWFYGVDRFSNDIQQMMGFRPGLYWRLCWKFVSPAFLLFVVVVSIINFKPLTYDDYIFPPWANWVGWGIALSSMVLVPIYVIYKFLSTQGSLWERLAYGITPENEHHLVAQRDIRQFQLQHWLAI", "test": "CEREP broad receptor screening panel", "format": "binding", "settings": "CPD 1 10 µM (table title), duplicate", "procedure": "as §2"}, "[18]": {"tested_on": "Na+ Channel", "test": "CEREP broad receptor screening panel", "format": "binding", "settings": "CPD 1 10 mM (table title), duplicate", "procedure": "as §2"}, "[19]": {"tested_on": "α2", "test": "CEREP broad receptor screening panel", "format": "binding", "settings": "CPD 1 10 mM (table title), duplicate", "procedure": "as §2"}, "[20]": {"molecular_target": "T16, β2 (Homo sapiens, UniProt P07550)", "T16 construct": "CEREP", "test": "CEREP broad receptor screening panel", "format": "binding", "settings": "CPD 1 10 µM (table title), duplicate", "procedure": "as §2"}, "[21]": {"tested_on": "σ", "test": "CEREP broad receptor screening panel", "format": "binding", "settings": "CPD 1 10 mM (table title), duplicate", "procedure": "as §2"}, "[22]": {"tested_on": "Male, Wistar rats", "test": "Schedule-induced polydipsia", "format": "in vivo, rat", "settings": "for Decrease of excessive water consumption: sc", "description": "Rats were used in these experiments as they have been utilized for such studies in the past with great success in generating significant polydipsia ([16]). Male, Wistar rats were singly housed, and maintained at approximately 85% of their free-feeding weights with free access to water. Twelve adult male, Wistar rats (Harlan Industries, Indianapolis, IN, USA) were used. They were allowed to acclimate to our vivarium for at least 3 days prior to testing. They were 2 months old at the start of the experiments that lasted approximately 6–8 months and were without explicit experimental experience prior to this study. The rats were singly housed, and maintained at approximately 86–91% of their free-feeding weights with post session supplemental feeding of Lab Diet #5001 for rodents (PMI Nutrition International Inc., St. Louis, MO, USA). Body weights were corrected for the normal growth curve of Wistar rats such that actual body weight of each rat increased over the experimental time frame. Water was available continuously in the individual home cages. Rats were inspected daily 7 days/week by experimenters and veterinary staff.\nThe experiments were conducted using operant behavior test chambers ENV-007 (Med Associates Inc., Georgia, VT, USA), 30.5 cm × 24.1 cm × 29.2 cm. The test chambers were contained within light and sound attenuating shells. A food trough was mounted 2 cm off the grid floor on the centerline. Two response levers were centered 8 cm off the centerline and 7 cm off the grid floor. Three lights were located above each response lever at 15 cm off the grid floor. All events were controlled and lever-press data were recorded by a Compaq computer running MED-PC Version IV (Med Associates Inc., Georgia, VT, USA). The water bottle located within each chamber was weighed before and after experimental sessions.\nExperimental sessions lasted 90 min. Test compounds or drug vehicle were administered on Tuesdays and Fridays, given the stability of performance (within 15% variation of the individual animal). Non-injection, control performances were on Thursdays. […] Dose-effect curves and drug interaction data were created by repeated testing in groups of five to eight rats. Test compounds were administered as described in figure legends. The effects of the compound are expressed as a percent of control for each individual animal. Results were analyzed by ANOVA followed by Dunnett’s multiple comparison (p < 0.05).\nThus, in keeping with the guidelines of animal care and use followed here, we utilized the minimum number of animals required for signal detection."}, "[23]": {"tested_on": "Male, Wistar rats", "test": "Isoproterenol-induced drinking", "format": "in vivo, rat", "settings": "5.6 mg/kg", "procedure": "Male, Wistar rats (different from those rats used in the schedule-induced polydipsia studies) were used. They were 331 ± 11 g at the initiation of this study. Compound 1 (5.6 mg/kg, s.c.) was evaluated for its ability to reduce drinking. (±)-isoproterenol (30 μg/kg, s.c.) was given to induce drinking (n = 5–20 rat/group). Ten minutes after vehicle or (±)-isoproterenol injection, rats were given either vehicle or Compound 1 and a 60 min session began in which the rats in individual housing cages were given access to water 20 min after the second injection. The weight of the water bottle before and after the 60 min period was measured to the nearest 0.1 g. After the experiment, the animals were returned to their living cages with continuous access to food and water."}, "[24]": {"settings": "10 mg/kg, five consecutive days"}}}
{"smiles": "C[C@H]1CN(c2ccc(C(F)(F)F)c3ccoc23)CCN1", "note": "[CPD 1, (3S)-3-methyl-1-[4-(trifluoromethyl)-7-benzofuranyl]-piperazine]", "values": [{"measurement": "Ki", "setting": "[1]", "result": 0.205, "unit": "µM"}, {"measurement": "Ki", "setting": "[2]", "result": 1.11, "unit": "µM"}, {"measurement": "Ki", "setting": "[3]", "result": 0.54, "unit": "µM"}, {"measurement": "Ki", "setting": "[4]", "result": 0.212, "unit": "µM"}, {"measurement": "Ki", "setting": "[5]; agonist radioligand, h5-HT7, read-out: Affinity, Mean", "result": "> 2", "unit": "µM"}, {"measurement": "inhibition at 2 µM", "setting": "[5]; at a concentration of 2 µM", "result": "< 50", "unit": "%"}, {"measurement": "% Inhibition", "setting": "[6]", "result": 59, "unit": "%"}, {"measurement": "% Inhibition", "setting": "[7]", "result": 82, "unit": "%"}, {"measurement": "inhibition at 10 µM", "setting": "[8]", "result": 94, "unit": "%"}, {"measurement": "inhibition at 10 µM", "setting": "[9]", "result": 61, "unit": "%"}, {"measurement": "inhibition at 10 µM", "setting": "[10]", "result": 82, "unit": "%"}, {"measurement": "inhibition at 10 µM", "setting": "[11]", "result": 105, "unit": "%"}, {"measurement": "inhibition at 10 µM", "setting": "[12]", "result": 69, "unit": "%"}, {"measurement": "inhibition at 10 µM", "setting": "[13]", "result": 93, "unit": "%"}, {"measurement": "inhibition at 10 µM", "setting": "[14]", "result": 70, "unit": "%"}, {"measurement": "inhibition at 10 µM", "setting": "[15]", "result": 56, "unit": "%"}, {"measurement": "inhibition at 10 µM", "setting": "[16]", "result": 76, "unit": "%"}, {"measurement": "inhibition at 10 µM", "setting": "[17]", "result": 74, "unit": "%"}, {"measurement": "% Inhibition", "setting": "[18]", "result": 101, "unit": "%"}, {"measurement": "% Inhibition", "setting": "[19]", "result": 70, "unit": "%"}, {"measurement": "inhibition at 10 µM", "setting": "[20]", "result": 104, "unit": "%"}, {"measurement": "% Inhibition", "setting": "[21]", "result": 100, "unit": "%"}, {"measurement": "Attenuation (tolerance) of the effect over 5 days", "setting": "[22]; [24]", "result": "not a significant attenuation"}, {"measurement": "Effect on excessive water consumption over 5 days of dosing", "setting": "[22]; [24]", "result": "significantly decreased"}, {"measurement": "Decrease of excessive water consumption", "setting": "[22]; CPD 1 5.6 mg/kg sc with MDL100907 0.1 mg/kg, 30 min prior", "result": 65, "unit": "%"}, {"measurement": "Decrease of excessive water consumption", "setting": "[22]; CPD 1 5.6 mg/kg, 20 min prior", "result": 64, "unit": "%"}, {"measurement": "Dose at which statistically significant reduction of excessive drinking was detected", "setting": "[22]; Dunnett p < 0.05", "result": "≥ 3", "unit": "mg/kg"}, {"measurement": "Effect on excessive drinking / amount of water consumed", "setting": "[22]; given alone, acute dosing", "result": "dose-dependently suppressed"}, {"measurement": "Effect on number of responses emitted (lever pressing for food)", "setting": "[22]; given alone, acute dosing", "result": "without affecting response output"}, {"measurement": "Reduction of isoproterenol-induced drinking", "setting": "[23]; s.c.", "result": 77, "unit": "%"}, {"measurement": "Effect on normal drinking", "setting": "[23]; without isoproterenol", "result": "did not significantly affect"}]}
